Results published in CN116444420A, “β-catenin/BCL9蛋白蛋白相互作用的小分子抑制剂及其应用” (Shanghai Pharmaceutical Industry Research Institute Co ltd, priority 2021, dated 2023).

Molecular target: T1, β-catenin/BCL9 protein-protein [β-catenin/BCL9蛋白-蛋白] (Homo sapiens, UniProt P35222)
T1 construct: β-catenin(1-781)
T1 sequence (P35222 1-781): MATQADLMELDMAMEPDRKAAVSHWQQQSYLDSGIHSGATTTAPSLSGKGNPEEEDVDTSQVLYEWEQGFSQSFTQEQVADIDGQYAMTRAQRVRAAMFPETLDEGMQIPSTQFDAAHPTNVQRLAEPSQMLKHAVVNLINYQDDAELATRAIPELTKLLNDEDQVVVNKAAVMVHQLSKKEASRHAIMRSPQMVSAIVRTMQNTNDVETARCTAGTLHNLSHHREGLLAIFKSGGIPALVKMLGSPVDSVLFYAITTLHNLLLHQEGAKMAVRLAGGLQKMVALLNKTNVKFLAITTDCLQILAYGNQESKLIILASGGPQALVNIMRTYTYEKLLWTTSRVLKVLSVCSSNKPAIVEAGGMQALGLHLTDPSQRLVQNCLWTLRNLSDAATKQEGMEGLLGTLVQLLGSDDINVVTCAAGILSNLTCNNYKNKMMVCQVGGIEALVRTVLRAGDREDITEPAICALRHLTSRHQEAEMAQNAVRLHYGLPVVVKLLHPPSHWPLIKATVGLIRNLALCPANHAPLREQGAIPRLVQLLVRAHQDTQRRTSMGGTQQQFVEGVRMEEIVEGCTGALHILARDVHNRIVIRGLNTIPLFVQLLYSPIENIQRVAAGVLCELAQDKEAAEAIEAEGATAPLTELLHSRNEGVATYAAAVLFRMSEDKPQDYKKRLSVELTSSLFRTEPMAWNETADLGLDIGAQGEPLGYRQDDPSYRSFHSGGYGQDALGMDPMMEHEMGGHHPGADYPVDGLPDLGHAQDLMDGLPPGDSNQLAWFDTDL
Assay: β-catenin/BCL9 protein-protein affinity, fluorescence polarisation (Example 71)
Format: binding
Details: better than compound c

| SMILES | affinity activity compared with reference compound c |
| --- | --- |
| CC(C)(Oc1cccc(C2CCCN(C(=O)c3cccc(-c4ccccc4)c3)C2)c1)C(=O)O (stereo not shown) [化合物II-9, 2-(3-(1-([1,1'-联苯基]-3-羰基)哌啶-3-基)苯氧基)-2-甲基丙酸] | 亲和活性更优 |
| CC(C)(Oc1cccc(C2CCCN(S(=O)(=O)c3cccc(C4CCCCC4)c3)C2)c1)C(=O)O (stereo not shown) [化合物II-16, 2-(3-(1-((3-环己基苯基)磺酰基)哌啶-3-基)苯氧基)-2-甲基丙酸] | 亲和活性更优 |
| CC(C)(Oc1cccc(C2CCCN(S(=O)(=O)c3cccc(-c4cccs4)c3)C2)c1)C(=O)O (stereo not shown) [化合物II-17, 2-甲基-2-(3-(1-((3-(噻吩-2-基)苯基)磺酰基)哌啶-3-基)苯氧基)丙酸] | 亲和活性更优 |
| CC(C)(Oc1cccc(C2CCCN(C(=O)c3cccc(-c4ccc(F)c(F)c4)c3)C2)c1)C(=O)NS(=O)(=O)c1ccccc1 (stereo not shown) [化合物II-29, 2-(3-(1-(3',4'-二氟-[1,1'-联苯基]-3-羰基)哌啶-3-基)苯氧基)-2-甲基-N-(苯磺酰基)丙酰胺] | 亲和活性更优 |
| CC(C)c1ccc(-c2cccc(S(=O)(=O)N3CCCC(c4cccc(OC(C)(C)C(=O)NS(=O)(=O)c5ccc(C#N)cc5)c4)C3)c2)cc1 (stereo not shown) [化合物II-37, N-((4-氰基苯基)磺酰基)-2-(3-(1-((4'-异丙基-[1,1'-联苯]-3-基)磺酰)哌啶-3-基(苯氧基)-2-甲基丙酰胺] | 亲和活性更优 |
| CC(C)c1ccc(-c2cccc(S(=O)(=O)N3CCCC(c4cccc(OC(C)(C)C(=O)NS(=O)(=O)c5cccc(C(F)(F)F)c5)c4)C3)c2)cc1 (stereo not shown) [化合物II-40, 2-(3-(1-((4'-异丙基-[1,1'-联苯]-3-基)磺酰基)哌啶-3-基(苯氧基)-2-甲基-N-((3-(三氟甲基)苯基)磺酰)丙酰胺] | 亲和活性更优 |
| CC(C)c1ccc(-c2cccc(S(=O)(=O)N3CCCC(c4cccc(OC(C)(C)C(=O)NS(=O)(=O)c5ccc([N+](=O)[O-])cc5)c4)C3)c2)cc1 (stereo not shown) [化合物II-42, 2-(3-(1-((4'-异丙基-[1,1'-联苯]-3-基)磺酰基)哌啶-3-基苯氧基)-2-甲基-N-((4-硝基苯基)磺酰)丙酰胺] | 亲和活性更优 |
| CC(C)c1ccc(-c2cccc(S(=O)(=O)N3CCCC(c4cccc(OC(C)(C)C(=O)NS(=O)(=O)c5ccc(F)cc5)c4)C3)c2)cc1 (stereo not shown) [化合物II-43, N-((4-氟苯基)磺酰基)-2-(3-(1-((4'-异丙基-[1,1'-联苯]-3-基)磺酰)哌啶-3-基苯氧基)-2-甲基丙酰胺] | 亲和活性更优 |
| CC(C)c1ccc(-c2cccc(S(=O)(=O)N3CCCC(c4cccc(OC(C)(C)C(=O)NS(=O)(=O)c5cccc(F)c5)c4)C3)c2)cc1 (stereo not shown) [化合物II-44, N-((3-氟苯基)磺酰基)-2-(3-(1-((4'-异丙基-[1,1'-联苯]-3-基)磺酰)哌啶-3-基苯氧基)-2-甲基丙酰胺] | 亲和活性更优 |
| CC(C)c1ccc(-c2cccc(S(=O)(=O)N3CCCC(c4cccc(OC(C)(C)C(=O)NS(=O)(=O)c5cccc([N+](=O)[O-])c5)c4)C3)c2)cc1 (stereo not shown) [化合物II-45, 2-(3-(1-((4'-异丙基-[1,1'-联苯]-3-基)磺酰基)哌啶-3-基苯氧基)-2-甲基-N-((3-硝基苯基)磺酰)丙酰胺] | 亲和活性更优 |
| CC(C)c1ccc(-c2cccc(S(=O)(=O)N3CCCC(c4cccc(OC(C)(C)C(=O)NS(=O)(=O)c5cccc(C#N)c5)c4)C3)c2)cc1 (stereo not shown) [化合物II-46, N-((3-氰基苯基)磺酰基)-2-(3-(1-((4'-异丙基-[1,1'-联苯]-3-基)磺酰)哌啶-3-基苯氧基)-2-甲基丙酰胺] | 亲和活性更优 |
| CC(C)c1ccc(-c2cccc(S(=O)(=O)N3CCCC(c4cccc(OC(C)(C)C(=O)NS(=O)(=O)c5ccc(OC(F)(F)F)cc5)c4)C3)c2)cc1 (stereo not shown) [化合物II-48, 2-(3-(1-((4'-异丙基-[1,1'-联苯]-3-基)磺酰基)哌啶-3-基苯氧基)-2-甲基-N-((4-(三氟甲氧基)苯基)磺酰)丙酰胺] | 亲和活性更优 |
| CC(=O)Nc1ccc(S(=O)(=O)NC(=O)C(C)(C)Oc2cccc(C3CCCN(S(=O)(=O)c4cccc(-c5ccc(C(C)C)cc5)c4)C3)c2)cc1 (stereo not shown) [化合物II-49, N-((4-乙酰氨基苯基)磺酰基)-2-(3-(1-((4'-异丙基-[1,1'-联苯]-3-基)磺酰)哌啶-3-基(苯氧基)-2-甲基丙酰胺] | 亲和活性更优 |
| CC(C)c1ccc(-c2cccc(S(=O)(=O)N3CCCC(c4cccc(OC(C)(C)C(=O)NS(=O)(=O)c5ccc6ccccc6c5)c4)C3)c2)cc1 (stereo not shown) [化合物II-50, 2-(3-(1-((4'-异丙基-[1,1'-联苯]-3-基)磺酰基)哌啶-3-基(苯氧基)-2-甲基-N-(萘-2-基磺酰)丙酰胺] | 亲和活性更优 |
| COc1cccc(S(=O)(=O)NC(=O)C(C)(C)Oc2cccc(C3CCCN(S(=O)(=O)c4cccc(-c5ccc(C(C)C)cc5)c4)C3)c2)c1 (stereo not shown) [化合物II-51, 2-(3-(1-((4'-异丙基-[1,1'-联苯]-3-基)磺酰基)哌啶-3-基(苯氧基)-N-((3-甲氧基苯基)磺酰)-2-甲基丙酰胺] | 亲和活性更优 |
| CC(C)c1ccc(-c2cccc(S(=O)(=O)N3CCCC(c4cccc(OC(C)(C)C(=O)NS(=O)(=O)c5ccc(C(F)(F)F)cc5Cl)c4)C3)c2)cc1 (stereo not shown) [化合物II-52, N-((2-氯-4-(三氟甲基)苯基)磺酰基)-2-(3-(1-((4'-异丙基-[1,1'-联苯]-3-基)磺酰)哌啶-3-基苯氧基)-2-甲基丙酰胺] | 亲和活性更优 |
| CC(C)(Oc1cccc(C2CCCN(C(=O)c3cccc(-c4ccc(F)c(F)c4)c3)C2)c1)C(=O)NS(=O)(=O)c1ccc(C(F)(F)F)cc1 (stereo not shown) [化合物II-55, 2-(3-(1-(3',4'-二氟-[1,1'-联苯]-3-羰基)哌啶-3-基)苯氧基)-2-甲基-N-((4-(三氟甲基)苯基)磺酰基)丙酰胺] | 亲和活性更优 |
| CC(C)(Oc1cccc(C2CCCN(C(=O)c3cccc(-c4ccc(F)c(F)c4)c3)C2)c1)C(=O)NS(=O)(=O)c1ccc2ccccc2c1 (stereo not shown) [化合物II-56, 2-(3-(1-(3',4'-二氟-[1,1'-联苯]-3-羰基)哌啶-3-基)苯氧基)-2-甲基-N-(萘-2-基磺酰基)丙酰胺] | 亲和活性更优 |
| CC(C)(Oc1cccc(C2CCCN(C(=O)c3cccc(-c4ccc(F)c(F)c4)c3)C2)c1)C(=O)N1CCC(=O)CC1 (stereo not shown) [化合物II-57, 1-(2-(3-(1-(3',4'-二氟-[1,1'-联苯]-3-羰基)哌啶-3-基)苯氧基)-2-甲基丙酰基)哌嗪-4-酮] | 亲和活性更优 |
| CC(C)(Oc1cccc(C2CCCN(C(=O)c3cccc(-c4ccc(F)c(F)c4)c3)C2)c1)C(=O)N1CCNCC1.Cl (stereo not shown) [化合物II-58, 4-(2-(3-(1-(3',4'-二氟-[1,1'-联苯]-3-羰基)哌啶-3-基)苯氧基)-2-甲基丙酰基)哌嗪-1-氯化铵] | 亲和活性更优 |
| CC(C)(Oc1cccc(C2CCCN(C(=O)c3cccc(-c4ccc(F)c(F)c4)c3)C2)c1)C(=O)N1CCC(N)CC1.Cl (stereo not shown) [化合物II-59, 1-(2-(3-(1-(3',4'-二氟-[1,1'-联苯]-3-羰基)哌啶-3-基)苯氧基)-2-甲基丙酰基)哌嗪-4-氯化铵] | 亲和活性更优 |
| CC(C)(Oc1cccc(C2CCCN(C(=O)c3cccc(-c4ccc(F)c(F)c4)c3)C2)c1)C(=O)N1CCOCC1 (stereo not shown) [化合物II-60, 2-(3-(1-(3',4'-二氟-[1,1'-联苯]-3-羰基)哌啶-3-基)苯氧基)-2-甲基-1-吗啉丙-1-酮] | 亲和活性更优 |
| CC(C)(Oc1cccc(C2CCCN(C(=O)c3cccc(-c4ccc(F)c(F)c4)c3)C2)c1)C(=O)NC1CCNCC1.Cl (stereo not shown) [化合物II-61, 4-(2-(3-(1-(3',4'-二氟-[1,1'-联苯]-3-羰基)哌啶-3-基)苯氧基)-2-甲基丙酰胺)哌啶-1-氯化铵] | 亲和活性更优 |
| CC(C)(Oc1cccc(C2CCCN(C(=O)c3cccc(-c4ccc(F)c(F)c4)c3)C2)c1)C(=O)N1CCC(O)CC1 (stereo not shown) [化合物II-63, 2-(3-(1-(3',4'-二氟-[1,1'-联苯]-3-羰基)哌啶-3-基)苯氧基)-1-(4-羟基哌啶-1-基)-2-甲基丙-1-酮] | 亲和活性更优 |
| CC(C)(Oc1cccc(C2CCCN(C(=O)c3cccc(-c4ccc(F)c(F)c4)c3)C2)c1)C(=O)N1C[C@H]2C[C@@H]1CN2.Cl (stereo partly drawn) [化合物II-65, (1R,4R)-5-(2-(3-(3-(3',4'-二氟-[1,1'-联苯]-3-羰基)哌啶-3-基)苯氧基)-2-甲基丙酰基)-2,5-二氮杂二环[2.2.1]庚-2-氯化铵] | 亲和活性更优 |
